Measurements: paper PMC11069494, “Production of highly cytotoxic and low immunogenic L-asparaginase from Stenotrophomonas maltophilia EMCC2297” (AMB Express, 2024)

Test system: T1, L-asparaginase (N-SMASP)
T1 construct: native enzyme purified from culture supernatant of chloramphenicol-selected colonies (ammonium sulfate, Sephadex G-100); single 17 kDa band on SDS-PAGE
Experiment: Nessler ammonia release assay, Lineweaver-Burk
Format: biochemical, Stenotrophomonas maltophilia
Settings: 0.05 M Tris-HCl pH 8.6, 37 °C

NC(=O)C[C@H](N)C(=O)O [L-asparagine]
Km: 41.6 mM
